Reference: US9765018B2, “IDO inhibitors” (BRISTOL-MYERS SQUIBB COMPANY, priority 2013, dated 2017)

Columns and labels:
[1] = biological target: T1, IDO (Homo sapiens (Human), UniProt P14902); test: Kynurenine assay in IFN-γ-stimulated Hela cells; assay type: cell-based; settings: 20 h, read-out: Hela Kyurenine (IC50)
Outline: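 Kynurenine in supernatant is read at 490 nm after Ehrlich reagent (10 min RT), following TCA stop and 30 min at 50° C hydrolysis. Before that, Hela cells in phenol red-free RPMI/10% FBS were co-treated 20 h at 37° C with 100 ng/mL IFN-γ and compound (30 μM top, 3-fold series to 1.5 nM).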

[2] = biological target: T1, IDO; test: LLE_IDO_ABS_DR (IDO assay, method not described)
[3] = biological target: Human IDO1 (Homo sapiens (Human), UniProt P14902); test: IDO Kynurenine Assay with Human IDO1/HEK293 Cells; assay type: cell-based; settings: HEK293 cells with human IDO1; read-out: HEK human IDO-1 (IC50)
Sequence of Human IDO1 (P14902 whole entry): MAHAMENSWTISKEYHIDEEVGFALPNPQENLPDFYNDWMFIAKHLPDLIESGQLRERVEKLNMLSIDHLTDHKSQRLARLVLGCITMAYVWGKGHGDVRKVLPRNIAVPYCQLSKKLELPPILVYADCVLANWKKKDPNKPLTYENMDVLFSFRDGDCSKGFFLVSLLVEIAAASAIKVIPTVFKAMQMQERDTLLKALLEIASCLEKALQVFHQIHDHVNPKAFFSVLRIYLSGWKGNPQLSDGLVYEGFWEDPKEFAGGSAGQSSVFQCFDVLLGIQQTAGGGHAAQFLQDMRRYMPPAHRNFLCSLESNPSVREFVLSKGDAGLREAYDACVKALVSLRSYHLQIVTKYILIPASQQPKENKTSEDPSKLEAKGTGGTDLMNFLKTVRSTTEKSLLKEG
Description: IDO Kynurenine Assay with Human IDO1/HEK293 Cells
Human IDO1/HEK293 cells were seeded at 10,000 cells per 50 uL per well with RPMI/phenol red free media contains 10% FBS in a 384-well black wall clear bottom tissue culture plate (Matrix Technologies LLC) 125 nL of certain concentration of compound was then added to each well using ECHO liquid handling systems. The cells were incubated for 20 hours in 37° C. incubator with 5% CO2.
The compound treatments were stopped by adding Trichloroacetic Acid (Sigma-Aldrich) to a final concentration at 0.2%. The cell plate was further incubated at 50° C. for 30 minute. The equal volume supernatant (20 uL) and 0.2% (w/v) Ehrlich reagent (4-dimethylaminobenzaldehyde, Sigma-Aldrich) in glacial acetic acid were mixed in a new clear bottom 384-well plate. This plate was then incubated at room temperature for 30 minute. The absorbance at 490 nm was measured on Envision plate reader.

T1 sequence (P14902 whole entry): as above

Row | SMILES | IC50 [1] | IC50 [2] | IC50 [3]
1 | COc1ccc(-c2ccc(Oc3cccc4c3CCCC4)c(NC(=O)Nc3cccc(C)c3)c2)cc1C(=O)O [Example 116, 4-methoxy-4′-(5,6,7,8-tetrahydronaphthalen-1-yloxy)-3′-(3-m-tolylureido)biphenyl-3-carboxylic acid] | 100 nM | 780 nM | 790 nM
2 | COc1ccc(-c2ccc(Oc3cccc(C)c3C)c(NC(=O)Nc3ccccc3Cl)c2)cc1C(=O)O [Example 120, 3′-(3-(2-chlorophenyl)ureido)-4′-(2,3-dimethylphenoxy)-4-methoxybiphenyl-3-carboxylic acid] | 80 nM | 430 nM | 260 nM
3 | Cc1ccc(NC(=O)Nc2cc(-c3ccccc3C(=O)O)ccc2Oc2ccccc2C(C)(C)C)cc1 [Example 2, 4′-(2-tert-Butylphenoxy)-3′-(3-p-tolylureido)biphenyl-2-carboxylic acid] | 60 nM | 70 nM | 560 nM
4 | C#CCOc1cccc(Oc2ccc(-c3ccc(OC)c(C(=O)O)c3)cc2NC(=O)Nc2ccccc2Cl)c1C [Example 136, 3′-(3-(2-chlorophenyl)ureido)-4-methoxy-4′-(2-methyl-3-(prop-2-ynyloxy)phenoxy)biphenyl-3-carboxylic acid] | 20 nM | 140 nM | 70 nM
5 | COc1ccc(-c2ccc(Oc3ccc4c(c3)CCCC4)c(NC(=O)Nc3ccc(C)cc3)c2)cc1C(=O)O [Example 148, 4-methoxy-4′-(5,6,7,8-tetrahydronaphthalen-2-yloxy)-3′-(3-p-tolylureido)biphenyl-3-carboxylic acid] | 260 nM | 490 nM | 2420 nM
6 | COc1ccc(-c2ccc(Oc3cccc(C)c3C)c(NC(=O)Nc3cccc(C)c3)c2)cc1C(=O)O [Example 122, 4′-(2,3-dimethylphenoxy)-4-methoxy-3′-(3-m-tolylureido)biphenyl-3-carboxylic acid] | 80 nM | 250 nM | 660 nM

More lines, now with the values ahead:

Row | IC50 [1] | IC50 [2] | IC50 [3] | SMILES
7 | 60 nM | 130 nM | 420 nM | COc1ccc(-c2ccc(Oc3ccccc3C(C)(C)C)c(NC(=O)Nc3ccccc3F)c2)cc1C(=O)O [Example 79, 4′-(2-(tert-butyl)phenoxy)-3′-(3-(2-fluorophenyl)ureido)-4-methoxy-[1,1′-biphenyl]-3-carboxylic acid]
8 | 840 nM | 1570 nM | 2970 nM | COc1ccc(-c2ccc(Oc3ccccc3C)c(NC(=O)Nc3ccc(C)cc3)c2)cc1C(=O)O [Example 73, 4-methoxy-4′-(o-tolyloxy)-3′-(3-p-tolylureido)biphenyl-3-carboxylic acid]
9 | 330 nM | 780 nM | 2330 nM | CCCc1ccccc1Oc1ccc(-c2ccc(OC)c(C(=O)O)c2)cc1NC(=O)Nc1ccc(C)cc1 [Example 77, 4-methoxy-4′-(2-propylphenoxy)-3′-(3-p-tolylureido)biphenyl-3-carboxylic acid]
10 | 40 nM | 160 nM | 380 nM | COc1ccc(-c2ccc(Oc3cccc4c3CCC4)c(NC(=O)Nc3ccccc3Cl)c2)cc1C(=O)O [Example 142, 3′-(3-(2-chlorophenyl)ureido)-4′-(2,3-dihydro-1H-inden-4-yloxy)-4-methoxybiphenyl-3-carboxylic acid]
11 | 50 nM | 200 nM | 530 nM | COc1ccc(-c2ccc(Oc3cccc4c3CCC4)c(NC(=O)Nc3ccccc3C)c2)cc1C(=O)O [Example 143, 4′-(2,3-dihydro-1H-inden-4-yloxy)-4-methoxy-3′-(3-o-tolylureido)biphenyl-3-carboxylic acid]
12 | 160 nM | 730 nM | 680 nM | COc1ccc(-c2ccc(Oc3cccc(C)c3C)c(NC(=O)Nc3ccc(C)cc3)c2)cc1C(=O)O [Example 123, 4′-(2,3-dimethylphenoxy)-4-methoxy-3′-(3-p-tolylureido)biphenyl-3-carboxylic acid]
